In ChEMBL document CHEMBL1201862, “PubChem BioAssay data set” (2004):
Activity calls are given as the source filed them.

Legend:
[1] = molecular target: T1, Polyadenylate-binding protein 1 (Homo sapiens, UniProt P11940); experiment: PABP1 MLLE–PAM2 interaction inhibitors, dose response, miRNA deadenylation inhibitor project, biochemical, fluorescence polarization, Cy5-PAM2 peptide, secondary (AID 602260); format: functional; conditions: read-out: IC50_Mean
[2] = molecular target: T1, Polyadenylate-binding protein 1; experiment: PABP1 MLLE–PAM2 binding inhibitor potency, dose response, biochemical, fluorescence polarization, FITC-PAM2 peptide (AID 602259); format: functional; conditions: read-out: IC50_Mean
Melanocortin receptor 4 = Melanocortin receptor 4 (Homo sapiens, UniProt P32245); format: functional, cell-based;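 further: Cell-based assay with luminescence read-out, confirmatory dose-response testing for agonist activity of biased ligands at MC4R; human U2OS cells with tagged receptor and beta-arrestin; potency of agonists that increase receptor coupling to beta-arrestin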
Sequence of Melanocortin receptor 4 (P32245 whole entry): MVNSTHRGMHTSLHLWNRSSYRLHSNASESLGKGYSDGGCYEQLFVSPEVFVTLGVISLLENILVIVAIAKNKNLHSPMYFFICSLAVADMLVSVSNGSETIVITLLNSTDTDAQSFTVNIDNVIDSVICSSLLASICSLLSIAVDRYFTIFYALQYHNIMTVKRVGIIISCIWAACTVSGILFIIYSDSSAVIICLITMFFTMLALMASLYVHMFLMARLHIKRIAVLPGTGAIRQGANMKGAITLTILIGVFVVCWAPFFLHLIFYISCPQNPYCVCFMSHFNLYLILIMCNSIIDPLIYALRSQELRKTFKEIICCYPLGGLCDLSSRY

[3] = molecular target: Fructose-bisphosphate aldolase (Mycobacterium tuberculosis, UniProt P9WQA3); experiment: Fluorescence-based biochemical high throughput dose response assay for inhibitors of the fructose-bisphosphate aldolase (FBA) of M. tuberculosis.; format: functional
Sequence of Fructose-bisphosphate aldolase (P9WQA3 whole entry): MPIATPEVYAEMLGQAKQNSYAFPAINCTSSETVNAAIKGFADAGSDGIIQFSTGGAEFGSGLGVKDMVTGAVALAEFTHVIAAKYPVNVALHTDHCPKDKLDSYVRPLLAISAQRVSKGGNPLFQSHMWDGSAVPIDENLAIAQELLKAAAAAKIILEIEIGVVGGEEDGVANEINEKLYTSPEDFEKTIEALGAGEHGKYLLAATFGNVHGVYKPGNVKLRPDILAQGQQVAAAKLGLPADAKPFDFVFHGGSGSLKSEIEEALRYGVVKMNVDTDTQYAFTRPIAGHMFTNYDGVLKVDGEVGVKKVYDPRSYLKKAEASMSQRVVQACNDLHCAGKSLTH

[4] = AlphaScreen signal interference compounds, dose response, artefact control for ARNT-TACC3 interaction inhibitor project, biochemical, luminescence, cherry-pick (AID 651705); format: functional;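 further: AlphaScreen bead proximity signal that flags compounds interfering with the detection technology; potency reflects signal decrease which marks the compound as an assay artifact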
[5] = THP-1 cell cytotoxicity, dose response, cytotoxicity control for Vif-APOBEC3G degradation inhibitor project, THP-1 cells (AID 1117359); format: functional; conditions: Human immunodeficiency virus 1, THP-1
[6] = molecular target: T2, DNA repair protein RAD52 homolog (Homo sapiens, UniProt P43351); format: functional, biochemical
T2 sequence (P43351 whole entry): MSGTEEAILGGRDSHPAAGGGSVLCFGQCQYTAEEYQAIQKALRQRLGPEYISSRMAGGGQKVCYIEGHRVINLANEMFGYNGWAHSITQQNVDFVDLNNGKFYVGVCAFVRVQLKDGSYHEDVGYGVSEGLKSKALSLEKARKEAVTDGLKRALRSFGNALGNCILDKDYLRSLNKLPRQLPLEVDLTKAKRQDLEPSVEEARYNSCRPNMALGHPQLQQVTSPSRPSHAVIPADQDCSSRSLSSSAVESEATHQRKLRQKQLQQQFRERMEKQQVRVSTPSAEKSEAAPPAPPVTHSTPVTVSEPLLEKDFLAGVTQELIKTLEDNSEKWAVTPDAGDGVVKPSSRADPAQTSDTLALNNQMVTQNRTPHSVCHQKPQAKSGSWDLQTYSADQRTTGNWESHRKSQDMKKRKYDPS

[7] = molecular target: DNA repair and recombination protein RAD54-like (Homo sapiens, UniProt Q92698); experiment: inhibitors of human RAD54 branch migration, confirmation, biochemical, fluorescence, cherry-picked samples, dose series (AID 651657); format: functional
Sequence of DNA repair and recombination protein RAD54-like (Q92698 whole entry): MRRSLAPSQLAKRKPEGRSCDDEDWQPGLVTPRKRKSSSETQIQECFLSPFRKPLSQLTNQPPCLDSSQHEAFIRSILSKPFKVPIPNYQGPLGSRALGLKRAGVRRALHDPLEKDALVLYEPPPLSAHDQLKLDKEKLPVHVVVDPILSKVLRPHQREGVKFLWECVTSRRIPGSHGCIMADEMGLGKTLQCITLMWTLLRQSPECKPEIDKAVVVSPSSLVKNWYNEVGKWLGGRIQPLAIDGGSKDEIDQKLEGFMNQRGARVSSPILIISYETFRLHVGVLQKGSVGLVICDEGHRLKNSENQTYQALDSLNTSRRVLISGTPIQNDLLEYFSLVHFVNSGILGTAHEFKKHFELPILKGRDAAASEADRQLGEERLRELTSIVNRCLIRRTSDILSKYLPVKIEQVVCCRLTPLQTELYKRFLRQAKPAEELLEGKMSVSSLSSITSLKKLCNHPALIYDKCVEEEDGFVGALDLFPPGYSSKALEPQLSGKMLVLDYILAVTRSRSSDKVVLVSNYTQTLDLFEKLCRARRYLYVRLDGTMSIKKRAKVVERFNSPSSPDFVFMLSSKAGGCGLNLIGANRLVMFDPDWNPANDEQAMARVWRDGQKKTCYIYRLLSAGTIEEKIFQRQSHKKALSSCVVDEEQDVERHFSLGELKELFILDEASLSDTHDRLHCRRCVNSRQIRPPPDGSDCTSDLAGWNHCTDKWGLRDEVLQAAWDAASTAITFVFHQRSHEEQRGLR

Vero = experiment: Vero cell toxicity, dose response, cytotoxicity control, plate reader, cherry-pick samples (AID 687020); format: functional, cell-based; conditions: Chlorocebus sabaeus
[8] = cytotoxicity in MIN6 insulinoma cells, dose response, cytotoxicity control, cell-based, mouse insulinoma (AID 2122); format: functional;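 further: confirmatory high-throughput counterscreen run to flag cytotoxic compounds; mouse MIN-6 beta cells carrying an insulin promoter eGFP reporter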
[9] = insulin promoter down-regulators in MIN6 cells, imaging, high-content screening, mouse beta cells (AID 1628); format: functional
Protein Wnt-3a = Protein Wnt-3a (Mus musculus, UniProt P27467); experiment: Wnt3a-driven reporter signaling inhibition, dose response, selectivity assay for Gli-SUFU antagonist project, Wnt-LIGHT cells, luminescence (AID 651570); format: functional; conditions: read-out: IC50_Mean;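 further: Wnt-LIGHT reporter cells stimulated with conditioned medium from Wnt3a-producing cells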
Sequence of Protein Wnt-3a (P27467 whole entry): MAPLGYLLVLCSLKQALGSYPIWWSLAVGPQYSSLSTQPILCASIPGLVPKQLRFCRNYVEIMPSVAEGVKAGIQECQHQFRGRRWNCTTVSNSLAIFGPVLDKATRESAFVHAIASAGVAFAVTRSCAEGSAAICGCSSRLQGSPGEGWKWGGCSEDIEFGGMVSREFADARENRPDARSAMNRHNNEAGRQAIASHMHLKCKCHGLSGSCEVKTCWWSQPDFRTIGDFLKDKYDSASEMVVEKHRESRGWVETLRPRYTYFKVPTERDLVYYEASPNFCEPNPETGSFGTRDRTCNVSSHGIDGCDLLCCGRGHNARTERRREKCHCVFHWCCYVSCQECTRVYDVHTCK

Beta-lactamase [10] = molecular target: Beta-lactamase (Salmonella choleraesuis (strain SC-B67), UniProt Q5J463); experiment: Epi-absorbance-based counterscreen for selective VIM-2 inhibitors: dose response biochemical high throughput screening assay to identify inhibitors of TEM-1 serine-beta-lactamase.
Sequence of Beta-lactamase (Salmonella choleraesuis (strain SC-B67), UniProt Q5J463) (Q5J463 whole entry): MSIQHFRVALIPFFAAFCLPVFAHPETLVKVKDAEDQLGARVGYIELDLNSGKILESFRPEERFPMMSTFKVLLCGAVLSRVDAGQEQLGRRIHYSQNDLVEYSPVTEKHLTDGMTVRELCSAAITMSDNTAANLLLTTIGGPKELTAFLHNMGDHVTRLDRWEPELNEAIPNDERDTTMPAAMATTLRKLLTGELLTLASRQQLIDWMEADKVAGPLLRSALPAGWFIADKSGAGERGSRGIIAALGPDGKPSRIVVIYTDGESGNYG

Beta-lactamase [11] = molecular target: T3, Beta-lactamase (Pseudomonas aeruginosa, UniProt Q79MP6); experiment: IMP-1 metallo-beta-lactamase inhibitors, dose response, selectivity assay for VIM-2 inhibitor project, biochemical, epi-absorbance (AID 1920)
T3 sequence (Q79MP6 whole entry): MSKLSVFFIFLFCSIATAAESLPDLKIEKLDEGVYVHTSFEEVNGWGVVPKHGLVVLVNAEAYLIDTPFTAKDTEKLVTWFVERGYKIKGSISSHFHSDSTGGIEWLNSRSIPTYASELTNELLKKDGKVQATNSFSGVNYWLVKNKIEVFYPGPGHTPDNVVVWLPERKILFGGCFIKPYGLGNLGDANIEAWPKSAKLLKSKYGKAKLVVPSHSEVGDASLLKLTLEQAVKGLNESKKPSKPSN

Beta-lactamase [12] = molecular target: T3, Beta-lactamase; experiment: […] counterscreen for selective VIM-2 inhibitors: dose response biochemical high throughput screening assay to identify inhibitors of IMP-1 metallo-beta-lactamase.
[13] = molecular target: T4, Nuclear receptor subfamily 0 group B member 1 (Homo sapiens, UniProt P51843); format: functional, cell-based;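 further: HEK293T cells transfected with SF-1 and DAX-1 plus StAR promoter luciferase reporter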
T4 sequence (P51843 whole entry): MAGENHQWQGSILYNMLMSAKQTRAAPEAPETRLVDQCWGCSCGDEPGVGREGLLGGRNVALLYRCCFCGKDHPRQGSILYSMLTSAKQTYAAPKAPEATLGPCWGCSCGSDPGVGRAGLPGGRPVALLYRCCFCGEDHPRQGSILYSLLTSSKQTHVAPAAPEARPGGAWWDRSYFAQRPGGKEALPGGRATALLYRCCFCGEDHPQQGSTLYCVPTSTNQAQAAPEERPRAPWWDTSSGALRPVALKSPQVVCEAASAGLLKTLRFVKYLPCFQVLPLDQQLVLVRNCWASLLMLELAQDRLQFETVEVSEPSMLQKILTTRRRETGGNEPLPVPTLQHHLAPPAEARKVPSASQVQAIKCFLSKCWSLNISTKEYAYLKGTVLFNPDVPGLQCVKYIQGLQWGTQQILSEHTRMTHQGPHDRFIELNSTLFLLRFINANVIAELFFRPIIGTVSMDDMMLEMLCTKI

cells [14] = format: functional, cell-based
[15] = miR-122 activators in hepatoma reporter cells, dose response, cell-based, Huh7 psiCHECK-miR122, Renilla luciferase, cherry-picked (AID 651956); format: functional;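 further: huh7 hepatoma cells stably carrying a psiCHECK-2 miR-122 sensor plasmid; renilla luciferase signal reporting endogenous miR-122 activity after 48 h compound exposure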
[16] = molecular target: T5, Apoptotic protease-activating factor 1 (Homo sapiens, UniProt O14727); experiment: SAR analysis of small molecule Activators of Apaf-1 in a Fluorescent assay.; format: functional; conditions: read-out: EC50_Mean;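 further: caspase-3 cleavage of fluorogenic Rh110 DEVD substrate downstream of apoptosome activation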
T5 sequence (O14727 whole entry): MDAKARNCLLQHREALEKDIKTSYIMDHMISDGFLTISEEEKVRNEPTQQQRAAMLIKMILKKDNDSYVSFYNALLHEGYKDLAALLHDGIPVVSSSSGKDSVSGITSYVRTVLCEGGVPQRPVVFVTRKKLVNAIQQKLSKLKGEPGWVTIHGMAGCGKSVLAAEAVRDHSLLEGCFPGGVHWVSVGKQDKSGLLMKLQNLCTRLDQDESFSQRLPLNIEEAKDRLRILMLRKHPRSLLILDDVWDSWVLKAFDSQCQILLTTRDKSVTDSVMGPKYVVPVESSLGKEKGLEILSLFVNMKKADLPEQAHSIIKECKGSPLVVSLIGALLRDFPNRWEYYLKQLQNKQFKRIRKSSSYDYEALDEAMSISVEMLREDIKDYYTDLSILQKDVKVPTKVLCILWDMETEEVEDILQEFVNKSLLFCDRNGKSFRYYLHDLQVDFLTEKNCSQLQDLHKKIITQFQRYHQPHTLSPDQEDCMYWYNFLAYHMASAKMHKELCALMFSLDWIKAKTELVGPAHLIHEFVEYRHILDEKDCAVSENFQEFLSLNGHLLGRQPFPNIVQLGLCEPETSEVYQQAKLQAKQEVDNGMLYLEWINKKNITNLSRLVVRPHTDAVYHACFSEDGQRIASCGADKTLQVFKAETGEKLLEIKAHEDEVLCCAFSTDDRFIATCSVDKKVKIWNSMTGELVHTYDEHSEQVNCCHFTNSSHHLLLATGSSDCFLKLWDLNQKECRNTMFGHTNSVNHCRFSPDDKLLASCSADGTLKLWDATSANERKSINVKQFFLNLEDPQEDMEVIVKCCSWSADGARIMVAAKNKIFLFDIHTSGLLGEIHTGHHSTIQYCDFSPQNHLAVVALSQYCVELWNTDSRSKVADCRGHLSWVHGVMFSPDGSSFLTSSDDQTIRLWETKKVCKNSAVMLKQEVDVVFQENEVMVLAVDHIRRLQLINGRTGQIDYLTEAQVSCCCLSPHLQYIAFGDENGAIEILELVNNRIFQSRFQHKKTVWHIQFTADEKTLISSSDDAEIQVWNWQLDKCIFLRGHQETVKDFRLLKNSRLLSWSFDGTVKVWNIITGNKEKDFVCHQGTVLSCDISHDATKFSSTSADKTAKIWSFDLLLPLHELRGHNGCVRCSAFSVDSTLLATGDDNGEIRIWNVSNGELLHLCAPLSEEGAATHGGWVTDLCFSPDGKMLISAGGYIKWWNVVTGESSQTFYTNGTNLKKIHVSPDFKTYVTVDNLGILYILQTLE

[17] = molecular target: T6, Methionyl-tRNA synthetase, putative (Trypanosoma brucei brucei, UniProt Q38C91); format: functional, Trypanosoma brucei brucei strain 927/4 GUTat10.1
T6 sequence (Q38C91 whole entry): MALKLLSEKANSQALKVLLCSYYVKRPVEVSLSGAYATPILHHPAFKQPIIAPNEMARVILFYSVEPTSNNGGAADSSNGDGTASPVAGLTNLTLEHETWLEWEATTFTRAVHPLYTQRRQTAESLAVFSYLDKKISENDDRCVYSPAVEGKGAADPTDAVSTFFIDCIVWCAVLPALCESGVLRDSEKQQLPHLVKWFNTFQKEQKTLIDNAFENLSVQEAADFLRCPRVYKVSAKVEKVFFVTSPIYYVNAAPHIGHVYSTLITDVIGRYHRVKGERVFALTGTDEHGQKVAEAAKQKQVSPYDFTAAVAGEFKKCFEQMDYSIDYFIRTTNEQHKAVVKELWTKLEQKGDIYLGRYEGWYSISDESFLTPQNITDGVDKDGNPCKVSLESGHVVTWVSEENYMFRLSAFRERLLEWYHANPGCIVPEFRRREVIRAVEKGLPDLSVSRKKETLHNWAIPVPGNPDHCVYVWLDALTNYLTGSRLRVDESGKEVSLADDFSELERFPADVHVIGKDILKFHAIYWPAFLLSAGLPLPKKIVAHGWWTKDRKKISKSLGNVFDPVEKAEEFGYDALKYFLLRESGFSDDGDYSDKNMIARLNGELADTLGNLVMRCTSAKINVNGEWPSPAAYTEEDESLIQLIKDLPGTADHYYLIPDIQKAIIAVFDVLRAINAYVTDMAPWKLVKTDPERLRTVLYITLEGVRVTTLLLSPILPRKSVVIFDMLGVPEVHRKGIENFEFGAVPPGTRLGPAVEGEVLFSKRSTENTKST

[18] = molecular target: T6, Methionyl-tRNA synthetase, putative; format: functional, Trypanosoma brucei brucei strain 927/4 GUTat10.1; remark: listed apart in the source
HEK293 [19] = experiment: cells; conditions: Homo sapiens
[20] = Counterscreen for inhibitors of Trypanosoma brucei methionyl tRNA synthetase (MetRS): Luminescence-based cell-based high throughput dose response assay to identify compounds that are cytotoxic to Jurkat human T lymphocyte cells.; format: functional
HEK293 [21] = experiment: cells; conditions: Homo sapiens; remark: listed apart in the source
cells [22] = format: functional, cell-based; remark: listed apart in the source
Nonstructural protein 1 = Nonstructural protein 1 (Influenza A virus, UniProt Q194T2); format: functional, Influenza A virus (A/California/07/2009(H1N1))
Sequence of Nonstructural protein 1 (Q194T2 whole entry): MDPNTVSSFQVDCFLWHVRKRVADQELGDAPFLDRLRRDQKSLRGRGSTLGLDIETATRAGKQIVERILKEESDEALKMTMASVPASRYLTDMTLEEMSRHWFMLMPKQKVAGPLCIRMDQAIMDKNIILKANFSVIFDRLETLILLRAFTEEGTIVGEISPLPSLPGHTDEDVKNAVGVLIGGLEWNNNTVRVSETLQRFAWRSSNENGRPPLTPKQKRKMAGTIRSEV

cells [23] = format: functional, cell-based; remark: listed apart in the source
INS1 = experiment: beta cell apoptosis inhibitors, cytokine rescue, dose response, luminescence, retest (AID 449756); format: functional, cell-based; conditions: Rattus norvegicus;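 further: cell death triggered by IL-1 beta plus TNF-alpha plus IFN-gamma mixture; protective hits raise ATP signal compared with cytokine alone wells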

T1 sequence (P11940 whole entry): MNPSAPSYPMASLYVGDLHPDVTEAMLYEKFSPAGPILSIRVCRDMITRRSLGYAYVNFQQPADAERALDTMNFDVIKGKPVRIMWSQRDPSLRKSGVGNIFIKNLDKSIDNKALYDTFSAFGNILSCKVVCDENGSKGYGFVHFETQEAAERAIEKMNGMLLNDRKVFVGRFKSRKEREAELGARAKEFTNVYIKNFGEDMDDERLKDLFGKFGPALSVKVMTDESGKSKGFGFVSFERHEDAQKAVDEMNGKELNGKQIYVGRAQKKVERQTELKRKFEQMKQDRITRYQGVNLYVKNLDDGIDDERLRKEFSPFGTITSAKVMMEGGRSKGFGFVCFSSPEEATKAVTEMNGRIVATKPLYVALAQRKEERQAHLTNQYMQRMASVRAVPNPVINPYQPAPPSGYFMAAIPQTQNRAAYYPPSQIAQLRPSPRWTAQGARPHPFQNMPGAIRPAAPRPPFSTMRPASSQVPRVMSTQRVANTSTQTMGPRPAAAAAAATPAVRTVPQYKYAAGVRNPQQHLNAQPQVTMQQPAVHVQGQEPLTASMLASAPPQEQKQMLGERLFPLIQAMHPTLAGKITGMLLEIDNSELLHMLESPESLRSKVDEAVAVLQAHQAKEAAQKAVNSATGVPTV

## Cc1ccc(OCC(=O)NC(=S)Nc2cccc(NC(=O)c3ccccc3)c2)cc1
[1]
  IC50: > 66 µM (inactive)
[2]
  IC50: > 66 µM (inactive)
Melanocortin receptor 4
  EC50: > 89.2 µM (inactive)

## COCCn1c(SCC(=O)N2CCCCC2)nc2c(c1=O)SCC2
[3]
  IC50: > 9.99 µM (inactive)

## CC1CC1C(=O)Nc1nc(-c2ccccn2)cs1 (stereo not given)
[4]
  AC50: 82.6 µM (active)

## CCOCCCN=C(S)Nc1ccc2nc(N3CCN(CC)CC3)cc(C)c2c1
[5]
  CC50: > 40 µM (active)
[6]
  AC50: 33 µM (active)
[7]
  AC50: 100 µM (inactive)

## CC(C)Oc1ccccc1OC1(C)CCN(Cc2ccc(OC(F)(F)F)cc2)C1 (stereo not given)
Vero
  AC50: 27.4 µM (active)

## C=CCNc1nc2c(c(=O)n(C)c(=O)n2C)n1Cc1ccc(F)cc1
[8]
  IC50: 0.892 µM (active)
[9]
  IC50: 1.13 µM (active)
Protein Wnt-3a
  IC50: 5.06 µM (active)

## O=c1c2ccccc2cnn1Cc1nnc(S)n1C1CC2CCC1C2 (stereo not given)
Beta-lactamase [10]
  IC50: > 59.6 µM (inactive)
Beta-lactamase [11]
  IC50: > 59.6 µM (inactive)
Beta-lactamase [12]
  IC50: > 59.6 µM (inactive)

## COc1ccccc1CNC(=O)C(=O)Nc1ccc(C(=O)N2CCC(C)CC2)cc1
Vero
  AC50: 25.8 µM (active)

## COc1cc2c(c(OC)c1OC)-c1ccc(OC)c(=O)cc1C(NC(=O)c1ccccc1)CC2 (stereo not given)
[13]
  IC50: > 67.5 µM (inactive)
Cells [14]
  IC50: > 67.5 µM (inactive)

## Cc1oc(C)c(C(=O)Nc2ccc(CC(=O)O)cc2)c1C(=O)Nc1ccc(CC(=O)O)cc1
[3]
  IC50: > 9.99 µM (inactive)

## CC[N+](CC)(CC#Cc1ccccc1)CC#Cc1ccccc1
Protein Wnt-3a
  IC50: 35.2 µM (inactive)

## CN1C(=O)c2cc(NC(=O)Nc3cccc(Cl)c3)ccc2OC[C@@H]2O[C@H](CC(=O)NCCc3ccncc3)CC[C@H]21
[15]
  AC50: 16.1 µM (active)

## COc1ccc(C)cc1NC(=O)CCS(=O)(=O)c1ccc2c(c1)NC(=O)CS2
[16]
  EC50: > 100 µM (inactive)

## O=C(c1ccc2nc(Cc3ccccc3F)oc2c1)N1CC[C@H](O)C1
[13]
  IC50: > 67.6 µM (inactive)
Cells [14]
  IC50: > 67.6 µM (inactive)

## NC(Cc1ccc(Cl)cc1)c1csc(NC(=O)Nc2ccccc2)n1 (stereo not given)
[17]
  IC50: 4.07 µM (active)
[18]
  IC50: 2.09 µM (active)
HEK293 [19]
  EC50: > 59.6 µM (inactive)
[20]
  IC50: 13.7 µM (inactive)
HEK293 [21]
  EC50: > 59.6 µM (inactive)
Melanocortin receptor 4
  EC50: > 89.2 µM (inactive)

## Cc1ncc(CO)c(/C=N/NC(=O)c2cc3c(s2)CCCC3)c1O
Cells [22]
  EC50: 11.4 µM (active)
Nonstructural protein 1
  IC50: 11.9 µM (active)
Cells [23]
  EC50: > 350 µM (not active)
INS1
  AC50: 1.89 µM (active)
[4]
  AC50: 119 µM (active)
